How the values were obtained:
[1] = tested on: Staph. epidermidis ATCC 12228; experiment: MIC, broth dilution (Isosensitest broth, 24 h); type: cell-based
[2] = tested on: Strep. faecalis ATCC 7080; experiment: MIC, broth dilution (Isosensitest broth, 24 h); type: cell-based
[3] = tested on: Propionibacterium acnes ATCC 6919; experiment: MIC, agar dilution (Wilkins-Chalgren agar, 48 h, anaerobic); type: cell-based
[4] = tested on: Clostridium difficile ATCC 9689; experiment: as above; type: cell-based
Staph. aureus Tour = experiment: MIC, broth dilution (Isosensitest broth, 24 h); type: cell-based
[5] = tested on: Neisseria gonorrhoeae ISM68/126; experiment: MIC, broth dilution (GC base broth + 1% Isovitalex, 48 h, CO2-enriched); type: cell-based
[6] = tested on: Haemophilus influenzae type b ATCC 19418; experiment: MIC, agar dilution (GB base agar + 1% Isovitalex + 0.001% hemin, 24 h); type: cell-based
[7] = tested on: Strept. mitis clin. isolate; experiment: MIC, broth dilution (Todd-Hewitt broth, 24 h); type: cell-based
[8] = tested on: Clostridium perfringens ISS30543; type: cell-based; conditions: anaerobic
[9] = tested on: Escherichia coli SKF 12140; experiment: MIC, broth dilution (Isosensitest broth, 24 h); type: cell-based
[10] = tested on: Bacteroides fragilis ATCC 23745; experiment: MIC, agar dilution (Wilkins-Chalgren agar, 48 h, anaerobic); type: cell-based
S. pyogenes C 203 = experiment: Experimental septicemia in mice, ED50; type: in vivo; conditions: mice infected intraperitoneally with S. pyogenes C 203; treated subcutaneously about 30 min after infection; survival, calculated on the 10th day (Spearman and Karber)
Procedure: The antimicrobial activity of the compound of the invention is confirmed also in in vivo experiments conducted essentially as described by R. Pallanza et al., J. Antimicrob. Chemother. 11, 419 (1983). The experimental infection was induced in mice by intraperitoneally administering a suspension of S. pyogenes C 203. Inocula had been adjusted so that the untreated animals died of septicemia within 48 h. Animals were treated subcutaneously with the test compound about 30 min after infection. The ED50 value was calculated on the 10th day by the method of Spearman and Karber (D. J. Finney "Statistical Methods in Biological Assay", Griffin, page 524, 1952) on the basis of the percentage of survival at each dose.

[11] = tested on: Mycoplasma gallisepticum S6 Weybridge; experiment: MIC, broth dilution (PPLO broth + 10% horse serum + 1% glucose, 48 h); type: cell-based
Strep. pyogenes C203 = experiment: MIC, broth dilution (Todd-Hewitt broth, 24 h); type: cell-based
Strep. pneumoniae UC41 = experiment: MIC, broth dilution (Todd-Hewitt broth, 24 h); type: cell-based

Substance: antibiotic A 40926 mannosyl aglycon
- M.I.C. [1]: 0.5 µg/mL
- M.I.C. [2]: 1 µg/mL
- M.I.C. [3]: 1 µg/mL
- M.I.C. [4]: 2 µg/mL
- M.I.C. (Staph. aureus Tour; Staph. aureus Tour (L165), 10^6 cfu/ml): 1 µg/mL
- M.I.C. (Staph. aureus Tour; Staph. aureus Tour, 30% bovine serum): 2 µg/mL
- M.I.C. (Staph. aureus Tour; Staph. aureus Tour, inoculum about 10^4-10^5 cfu/ml): 0.25 µg/mL
- M.I.C. [5]: 32 µg/mL
- M.I.C. [6]: 64 µg/mL
- M.I.C. [7]: 1 µg/mL
- M.I.C. [8]: 0.13 µg/mL
- M.I.C. [9]: > 128 µg/mL
- M.I.C. [10]: 64 µg/mL
- ED50 (S. pyogenes C 203): 3.8 mg/kg
- M.I.C. [11]: > 128 µg/mL
- M.I.C. (Strep. pyogenes C203): 1 µg/mL
- M.I.C. (Strep. pneumoniae UC41): 1 µg/mL
